Data as given in patent publication US7728155B2, “Dihydrobenzofuranyl alkanamines and methods for using same as cns agents” (Wyeth LLC, priority 2003, dated 2010).
Read-outs that look alike come from different tables or passages of the source.

Assays:
[1] = target: T1, human 5-hydroxytryptamine-2C (h5-HT2C) receptor (Homo sapiens, UniProt P28335); assay: [125I]DOI binding affinity at h5-HT2C receptor, CHO cell membranes; conditions: for Ki: [125I]DOI displacement, CHO membranes expressing h5-HT2C
T1 construct: expressed in transfected cells; host or cells: CHO (Chinese Hamster Ovary) cells; membranes
T1 sequence (P28335 33-458): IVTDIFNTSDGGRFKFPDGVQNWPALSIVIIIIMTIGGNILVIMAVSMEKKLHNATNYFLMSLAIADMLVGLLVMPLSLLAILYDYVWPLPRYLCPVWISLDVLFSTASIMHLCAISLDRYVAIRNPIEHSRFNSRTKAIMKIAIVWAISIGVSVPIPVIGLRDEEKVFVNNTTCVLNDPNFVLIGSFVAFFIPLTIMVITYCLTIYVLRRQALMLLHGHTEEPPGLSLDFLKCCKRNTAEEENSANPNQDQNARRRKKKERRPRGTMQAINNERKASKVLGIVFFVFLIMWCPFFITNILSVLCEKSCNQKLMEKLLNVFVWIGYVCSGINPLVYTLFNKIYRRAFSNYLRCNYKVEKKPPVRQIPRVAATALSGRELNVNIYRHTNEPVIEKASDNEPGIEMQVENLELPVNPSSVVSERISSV

human 5-HT2C receptor = target: T2, human 5-HT2C receptor (Homo sapiens, UniProt P28335); assay: 5-HT2C receptor-stimulated calcium mobilization (FLIPR) in CHO cells; assay type: cell-based; conditions: for EC50: calcium mobilization, CHO cells expressing human 5-HT2C, read-out: 5-HT2C Function EC50; for Emax: CHO, read-out: 5-HT2C Function Emax (%)
T2 sequence (P28335 33-458): T1 sequence (P28335 33-458)

[2] = percentage of the response to a maximally effective concentration of 5-HT

Compound	Ki ([1]; read-out: 5-HT2C Affinity Ki) [nM]	EC50 (human 5-HT2C receptor) [nM]	5-HT2C Function Emax (%) (human 5-HT2C receptor; [2])	Emax (human 5-HT2C receptor; [2]) [%]	further results
COc1cc2c(c3c1C1CCC3C1)OC(CN)C2 (single isomer, unassigned) [Example 18, (9-methoxy-4-oxatetracyclo[9.2.1.0^2,10.0^3,7]tetradeca-2,7,9-trien-5-yl)methylamine]	82	–	–	–	–
COc1cc2c(c3c1C1CCC3CC1)OC(CN)C2 (single isomer, unassigned; (+)) [Example 20, (+)-1-(5-methoxy-2,3,6,7,8,9-hexahydro-6,9-ethanonaphtho[1,2-b]furan-2-yl)methanamine]	22	91	60	–	–
Cc1cc2c(c3c1CCC3)OC(CN)C2 (racemic) [Example 7, (±)-1-(5-methyl-3,6,7,8-tetrahydro-2H-indeno[4,5-b]furan-2-yl)methanamine]	6	19	–	95	–
NCC1Cc2ccc3c(c2O1)CCCC3 (single isomer, unassigned; (+)) [Example 5, (+)-1-(2,3,6,7,8,9-hexahydronaphtho[1,2-b]furan-2-yl)methanamine]	17	38	70	–	–
NCC1Cc2c(Cl)cc3c(c2O1)CCC3 (single isomer, unassigned; (+)) [Example 27, (+)-1-(4-chloro-3,6,7,8-tetrahydro-2H-indeno[4,5-b]furan-2-yl)methanamine]	4	56	60	–	–
NCC1Cc2cc(Cl)c3c(c2O1)CCC3 (single isomer, unassigned; (+)) [Example 31, (+)-1-(5-chloro-3,6,7,8-tetrahydro-2H-indeno[4,5-b]furan-2-yl)methanamine]	1	10	40	–	–
NCC1Cc2c(ccc3c2CCCC3)O1 (racemic) [Example 14, (±)-1-(1,2,6,7,8,9-hexahydronaphtho[2,1-b]furan-2-yl)methanamine]	19	34	–	100	–
COc1cc2c(c3c1C1CCC3C1)OC(CN)C2 (single isomer, unassigned) [Example 17, (9-methoxy-4-oxatetracyclo[9.2.1.0^2,10.0^3,7]tetradeca-2,7,9-trien-5-yl)methylamine]	8	10	–	100	–
NCC1Cc2ccc3c(c2O1)CCC3 (single isomer, unassigned; (-)) [Example 3, (−)-1-(3,6,7,8-tetrahydro-2H-indeno[4,5-b]furan-2-yl)methanamine]	5	0.9	100	–	–
NCC1Cc2ccc3c(c2O1)CCC3 (single isomer, unassigned; (+)) [Example 2, (+)-1-(3,6,7,8-tetrahydro-2H-indeno[4,5-b]furan-2-yl)methanamine]	28	8	75	–	–
NCC1Cc2c(Cl)cc3c(c2O1)CCC3 (racemic) [Example 25, (±)-1-(4-chloro-3,6,7,8-tetrahydro-2H-indeno[4,5-b]furan-2-yl)methanamine]	12	4.4	–	80	–
COc1cc2c(c3c1C1CCC3C1)OC(CN)C2 (centres unmarked) [Example 15, (9-methoxy-4-oxatetracyclo[9.2.1.0^2,10.0^3,7]tetradeca-2,7,9-trien-5-yl)methylamine]	9	17	–	100	–
C[C@@H](N)[C@H]1Cc2ccc3c(c2O1)CCC3 (single isomer, unassigned) [Example 22, (2R*)-1-[(2R*)-3,6,7,8-tetrahydro-2H-indeno[4,5-b]furan-2-yl]ethylamine]	–	15	–	–	Emax (human 5-HT2C receptor): 80%; Ki ([1]; 5-HT2C Affinity Ki (nM)): 13 nM
Cc1cc2c(c3c1CCC3)OC(CN)C2 (single isomer, unassigned; (-)) [Example 9, (−)-1-(5-methyl-3,6,7,8-tetrahydro-2H-indeno[4,5-b]furan-2-yl)methanamine]	11	11	100	–	–
NCC1Cc2ccc3ccccc3c2O1 (racemic) [Example 10, (±)-1-(2,3-dihydronaphtho[1,2-b]furan-2-yl)methanamine]	29	20	–	90	–
NCC1Cc2cc(Cl)c3c(c2O1)CCC3 (single isomer, unassigned; (-)) [Example 30, (−)-1-(5-chloro-3,6,7,8-tetrahydro-2H-indeno[4,5-b]furan-2-yl)methanamine]	6	234	80	–	–
COc1cc2c(c3c1C1CCC3CC1)OC(CN)C2 (racemic) [Example 19, (±)-1-(5-methoxy-2,3,6,7,8,9-hexahydro-6,9-ethanonaphtho[1,2-b]furan-2-yl)methanamine]	7	25	–	100	–
NCC1Cc2ccc3c(c2O1)CCC3 (racemic) [Example 1, (±)-1-(3,6,7,8-tetrahydro-2H-indeno[4,5-b]furan-2-yl)methanamine]	10	31	–	90	–
NCC1Cc2ccc3ccccc3c2O1 (single isomer, unassigned; (+)) [Example 11, (+)-1-(2,3-dihydronaphtho[1,2-b]furan-2-yl)methanamine]	15	5.7	65	–	–
NCC1Cc2ccc3c(c2O1)CCCC3 (racemic) [Example 4, (±)-1-(2,3,6,7,8,9-hexahydronaphtho[1,2-b]furan-2-yl)methanamine]	8	76	–	80	–
NCC1Cc2c(Cl)cc3c(c2O1)CCC3 (single isomer, unassigned; (-)) [Example 26, (−)-1-(4-chloro-3,6,7,8-tetrahydro-2H-indeno[4,5-b]furan-2-yl)methanamine]	16	88	–	80	–
NCC1Cc2ccc3c(c2O1)CCCC3 (single isomer, unassigned; (-)) [Example 6, (−)-1-(2,3,6,7,8,9-hexahydronaphtho[1,2-b]furan-2-yl)methanamine]	11	3	100	–	–
NCC1Cc2cc3c(cc2O1)CCCC3 (racemic) [Example 13, (±)-1-(2,3,5,6,7,8-hexahydronaphtho[2,3-b]furan-2-yl)methanamine]	99	–	–	–	–
COc1cc2c(c3c1C1CCC3C1)OC(CN)C2 (single isomer, unassigned) [Example 16, (9-methoxy-4-oxatetracyclo[9.2.1.0^2,10.0^3,7]tetradeca-2,7,9-trien-5-yl)methylamine]	85	–	–	–	–
COc1cc(CC(C)N)c(OC)cc1I (centres unmarked) [[^125I] DOI, reference compound]	–	–	–	–	Kd ([1]; saturation binding with increasing concentrations of [125I]DOI, read-out: dissociation constant, KD): 0.4 nM
COc1cc2c(c3c1C1CCC3CC1)OC(CN)C2 (single isomer, unassigned; (-)) [Example 21, (−)-1-(5-methoxy-2,3,6,7,8,9-hexahydro-6,9-ethanonaphtho[1,2-b]furan-2-yl)methanamine]	4	0.8	90	–	–
CNCC1Cc2cc(Cl)c3ccccc3c2O1 (racemic) [Example 24, (±)-1-(5-chloro-2,3-dihydronaphtho[1,2-b]furan-2-yl)-N-methylmethanamine]	7	91	–	60	–
CSc1ccc2c(c1)C(N1CCN(C)CC1)Cc1ccccc1S2 (centres unmarked) [Methiothepin, reference compound]	–	–	–	–	Ki ([1]; reference compounds, read-out: Ki (95% confidence interval)): 4.6 nM
